Data from publication PMC8799717, “Pharmacological targeting PIKfyve and tubulin as an effective treatment strategy for double-hit lymphoma” (Cell Death Discovery, 2022).

How the values were obtained:
Assay in all cases: biochemical
Design in all cases: KINOMEscan active-site-directed competition binding panel, 468 kinases, percent of DMSO control at 1 uM
Details in all cases: KINOMEscan binding, percent of DMSO control; read-out: Ctrl%
[1] = molecular target: T1, RIPK5 (Homo sapiens, UniProt Q6XUX3)
T1 construct: gene DSTYK

[2] = molecular target: T2, ABL1(F317L)-nonphosphorylated (Homo sapiens, UniProt P00519, F317L)
T2 construct: nonphosphorylated

[3] = molecular target: CLK2 (Homo sapiens, UniProt P49760)
[4] = molecular target: ACVR1 (Homo sapiens, UniProt Q04771)
[5] = molecular target: PIK3CA(H1047L) (Homo sapiens, UniProt P42336, H1047L)
[6] = molecular target: GSK3B (Homo sapiens, UniProt P49841)
[7] = molecular target: T3, CAMK1B (Homo sapiens, UniProt Q6P2M8)
T3 construct: gene PNCK

[8] = molecular target: MAP3K2 (Homo sapiens, UniProt Q9Y2U5)
[9] = molecular target: T4, p38-alpha (Homo sapiens, UniProt Q16539)
T4 construct: gene MAPK14

[10] = molecular target: EGFR(S752-I759del) (Homo sapiens, UniProt P00533, DEL752-759)
[11] = molecular target: CHEK2 (Homo sapiens, UniProt O96017)
[12] = molecular target: T5, p38-beta (Homo sapiens, UniProt Q15759)
T5 construct: gene MAPK11

[13] = molecular target: EGFR(L747-T751del,Sins) (Homo sapiens, UniProt P00533, DEL747-750/T751S)
[14] = molecular target: CAMK4 (Homo sapiens, UniProt Q16566)
[15] = molecular target: IRAK1 (Homo sapiens, UniProt P51617)
[16] = molecular target: LIMK1 (Homo sapiens, UniProt P53667)
[17] = molecular target: PKMYT1 (Homo sapiens, UniProt Q99640)
[18] = molecular target: MAP4K4 (Homo sapiens, UniProt O95819)
[19] = molecular target: FLT3(K663Q) (Homo sapiens, UniProt P36888, K663Q)
[20] = molecular target: ROS1 (Homo sapiens, UniProt P08922)
[21] = molecular target: BRSK2 (Homo sapiens, UniProt Q8IWQ3)
[22] = molecular target: PRKCD (Homo sapiens, UniProt Q05655)
[23] = molecular target: NEK5 (Homo sapiens, UniProt Q6P3R8)
[24] = molecular target: T6, DLK (Homo sapiens, UniProt Q12852)
T6 construct: gene MAP3K12

GSK3B, sequence (P49841 whole entry): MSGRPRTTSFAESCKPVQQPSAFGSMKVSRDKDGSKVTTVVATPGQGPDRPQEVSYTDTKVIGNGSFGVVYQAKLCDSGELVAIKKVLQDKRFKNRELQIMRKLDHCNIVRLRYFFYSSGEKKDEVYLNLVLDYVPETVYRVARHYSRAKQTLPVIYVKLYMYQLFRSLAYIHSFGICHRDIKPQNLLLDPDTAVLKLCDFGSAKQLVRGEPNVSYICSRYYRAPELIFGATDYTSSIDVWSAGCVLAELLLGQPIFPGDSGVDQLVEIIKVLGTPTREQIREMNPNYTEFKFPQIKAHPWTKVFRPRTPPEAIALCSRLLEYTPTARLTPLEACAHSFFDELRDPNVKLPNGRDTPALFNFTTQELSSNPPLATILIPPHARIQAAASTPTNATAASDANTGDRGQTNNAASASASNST
CAMK4, sequence (Q16566 whole entry): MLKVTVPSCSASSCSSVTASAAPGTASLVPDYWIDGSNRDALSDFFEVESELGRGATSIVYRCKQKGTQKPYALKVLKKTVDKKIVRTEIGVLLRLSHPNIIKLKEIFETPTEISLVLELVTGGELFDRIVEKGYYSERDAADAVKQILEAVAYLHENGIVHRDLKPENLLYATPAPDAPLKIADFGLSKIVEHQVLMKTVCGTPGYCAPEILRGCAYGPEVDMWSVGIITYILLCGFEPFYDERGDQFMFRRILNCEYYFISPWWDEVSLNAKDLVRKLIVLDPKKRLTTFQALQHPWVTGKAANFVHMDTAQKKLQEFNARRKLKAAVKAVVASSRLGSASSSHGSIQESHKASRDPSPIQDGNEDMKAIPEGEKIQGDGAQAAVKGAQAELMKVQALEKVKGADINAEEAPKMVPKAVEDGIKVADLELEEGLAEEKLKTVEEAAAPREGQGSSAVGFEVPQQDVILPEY
T2 sequence (P00519 whole entry F317L): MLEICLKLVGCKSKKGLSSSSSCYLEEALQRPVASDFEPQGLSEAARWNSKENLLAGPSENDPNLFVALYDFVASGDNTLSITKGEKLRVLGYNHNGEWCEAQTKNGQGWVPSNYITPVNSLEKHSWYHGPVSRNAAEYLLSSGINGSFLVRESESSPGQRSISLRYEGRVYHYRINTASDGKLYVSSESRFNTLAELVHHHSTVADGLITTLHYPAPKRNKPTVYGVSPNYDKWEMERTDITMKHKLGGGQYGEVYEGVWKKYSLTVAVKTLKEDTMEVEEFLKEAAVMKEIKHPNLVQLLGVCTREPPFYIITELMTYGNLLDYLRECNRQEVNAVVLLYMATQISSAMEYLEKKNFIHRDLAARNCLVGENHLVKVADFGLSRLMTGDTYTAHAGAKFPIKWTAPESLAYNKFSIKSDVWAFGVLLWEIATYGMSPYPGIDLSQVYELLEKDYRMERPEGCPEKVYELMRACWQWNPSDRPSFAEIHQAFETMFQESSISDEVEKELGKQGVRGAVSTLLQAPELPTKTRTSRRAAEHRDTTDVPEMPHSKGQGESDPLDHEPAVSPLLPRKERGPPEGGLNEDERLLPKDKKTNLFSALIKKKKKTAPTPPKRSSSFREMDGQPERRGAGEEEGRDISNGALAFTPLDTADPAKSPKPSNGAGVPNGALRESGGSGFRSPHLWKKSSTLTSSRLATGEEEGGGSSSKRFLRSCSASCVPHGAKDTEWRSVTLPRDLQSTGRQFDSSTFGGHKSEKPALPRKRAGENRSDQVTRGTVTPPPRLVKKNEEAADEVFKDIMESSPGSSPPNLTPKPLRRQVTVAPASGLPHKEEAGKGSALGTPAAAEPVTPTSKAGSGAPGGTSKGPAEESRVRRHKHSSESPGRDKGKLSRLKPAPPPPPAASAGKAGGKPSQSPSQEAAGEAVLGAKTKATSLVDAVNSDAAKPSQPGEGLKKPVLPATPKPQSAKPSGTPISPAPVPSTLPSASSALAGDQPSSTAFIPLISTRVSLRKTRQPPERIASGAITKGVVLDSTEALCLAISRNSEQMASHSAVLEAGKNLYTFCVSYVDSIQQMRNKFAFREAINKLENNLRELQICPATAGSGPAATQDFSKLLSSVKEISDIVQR
T1 sequence (Q6XUX3 whole entry): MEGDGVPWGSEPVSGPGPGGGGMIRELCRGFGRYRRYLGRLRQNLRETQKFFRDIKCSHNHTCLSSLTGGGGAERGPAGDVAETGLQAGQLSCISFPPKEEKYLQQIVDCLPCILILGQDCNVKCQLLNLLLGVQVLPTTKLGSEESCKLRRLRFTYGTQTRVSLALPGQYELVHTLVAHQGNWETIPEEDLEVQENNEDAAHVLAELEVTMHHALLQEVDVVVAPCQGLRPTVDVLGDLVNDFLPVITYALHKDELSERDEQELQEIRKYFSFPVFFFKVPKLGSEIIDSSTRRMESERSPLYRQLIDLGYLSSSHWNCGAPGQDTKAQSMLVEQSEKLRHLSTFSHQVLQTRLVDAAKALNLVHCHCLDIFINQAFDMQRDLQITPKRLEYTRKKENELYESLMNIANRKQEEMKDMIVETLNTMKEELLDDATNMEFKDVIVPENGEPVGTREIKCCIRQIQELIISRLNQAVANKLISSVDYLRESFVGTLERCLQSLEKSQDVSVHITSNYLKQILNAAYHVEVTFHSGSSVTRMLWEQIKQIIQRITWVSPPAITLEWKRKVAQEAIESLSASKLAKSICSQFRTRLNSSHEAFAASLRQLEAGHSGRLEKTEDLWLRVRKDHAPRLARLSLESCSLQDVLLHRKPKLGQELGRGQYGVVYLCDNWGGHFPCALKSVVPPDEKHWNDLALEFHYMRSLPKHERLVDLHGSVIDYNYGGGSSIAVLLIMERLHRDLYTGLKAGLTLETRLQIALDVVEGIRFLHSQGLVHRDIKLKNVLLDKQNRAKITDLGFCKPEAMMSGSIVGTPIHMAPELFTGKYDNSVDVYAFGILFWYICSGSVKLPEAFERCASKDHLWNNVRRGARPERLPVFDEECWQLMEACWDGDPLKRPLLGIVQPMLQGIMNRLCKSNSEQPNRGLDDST
BRSK2, sequence (Q8IWQ3 whole entry): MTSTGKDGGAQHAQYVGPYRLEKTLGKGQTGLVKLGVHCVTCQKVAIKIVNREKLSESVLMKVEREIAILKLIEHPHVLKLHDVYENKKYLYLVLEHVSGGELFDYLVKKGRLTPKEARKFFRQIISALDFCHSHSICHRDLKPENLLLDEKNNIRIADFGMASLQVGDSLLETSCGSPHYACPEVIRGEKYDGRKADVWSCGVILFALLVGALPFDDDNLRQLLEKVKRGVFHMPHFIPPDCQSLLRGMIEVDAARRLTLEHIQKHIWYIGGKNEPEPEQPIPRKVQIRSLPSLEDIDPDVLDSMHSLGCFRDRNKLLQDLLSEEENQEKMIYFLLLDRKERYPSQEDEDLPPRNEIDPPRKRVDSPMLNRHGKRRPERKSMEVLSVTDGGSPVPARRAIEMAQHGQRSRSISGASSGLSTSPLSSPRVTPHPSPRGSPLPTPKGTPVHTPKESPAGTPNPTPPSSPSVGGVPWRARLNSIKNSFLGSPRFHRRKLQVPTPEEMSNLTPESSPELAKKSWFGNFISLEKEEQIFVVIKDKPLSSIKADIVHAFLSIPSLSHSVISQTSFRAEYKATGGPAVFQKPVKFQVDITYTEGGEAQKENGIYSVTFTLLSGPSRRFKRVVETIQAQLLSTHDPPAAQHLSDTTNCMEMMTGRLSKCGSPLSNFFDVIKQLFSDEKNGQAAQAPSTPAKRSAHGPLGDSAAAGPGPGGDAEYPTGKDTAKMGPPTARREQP
IRAK1, sequence (P51617 whole entry): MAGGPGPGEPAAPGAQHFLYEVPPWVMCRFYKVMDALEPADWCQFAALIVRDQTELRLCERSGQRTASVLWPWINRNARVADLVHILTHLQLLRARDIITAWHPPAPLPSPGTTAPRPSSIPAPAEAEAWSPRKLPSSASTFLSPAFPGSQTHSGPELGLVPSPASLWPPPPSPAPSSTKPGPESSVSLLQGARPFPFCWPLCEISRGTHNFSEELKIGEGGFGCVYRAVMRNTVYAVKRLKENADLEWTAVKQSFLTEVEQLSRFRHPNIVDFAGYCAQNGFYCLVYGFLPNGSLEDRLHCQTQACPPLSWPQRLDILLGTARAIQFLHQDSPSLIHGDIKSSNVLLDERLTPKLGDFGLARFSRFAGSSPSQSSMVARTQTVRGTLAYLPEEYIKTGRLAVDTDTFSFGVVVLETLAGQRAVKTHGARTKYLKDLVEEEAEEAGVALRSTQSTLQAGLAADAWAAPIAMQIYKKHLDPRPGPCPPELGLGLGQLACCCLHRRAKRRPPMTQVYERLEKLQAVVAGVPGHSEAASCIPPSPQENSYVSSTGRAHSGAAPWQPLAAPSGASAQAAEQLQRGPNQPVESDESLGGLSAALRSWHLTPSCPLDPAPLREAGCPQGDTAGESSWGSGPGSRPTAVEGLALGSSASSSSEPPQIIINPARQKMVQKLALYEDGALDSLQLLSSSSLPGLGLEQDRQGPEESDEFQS
T4 sequence (Q16539 whole entry): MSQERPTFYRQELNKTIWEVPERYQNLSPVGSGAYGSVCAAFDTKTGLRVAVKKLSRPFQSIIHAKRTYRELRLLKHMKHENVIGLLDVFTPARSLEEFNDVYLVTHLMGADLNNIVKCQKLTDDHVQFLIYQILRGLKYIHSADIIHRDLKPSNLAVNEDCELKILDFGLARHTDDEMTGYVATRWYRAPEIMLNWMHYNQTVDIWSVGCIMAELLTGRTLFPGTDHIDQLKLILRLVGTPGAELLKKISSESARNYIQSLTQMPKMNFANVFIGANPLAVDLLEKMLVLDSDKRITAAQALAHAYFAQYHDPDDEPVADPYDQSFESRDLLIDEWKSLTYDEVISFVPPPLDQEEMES

Cc1ccc(NC(=O)c2cccc(C(F)(F)F)c2)cc1Nc1cc(-c2cccnc2)nc2[nH]ccc12 [HZX-02-059]
remaining binding at 1 µM [1]: 100% | remaining binding at 1 µM [2]: 60% | remaining binding at 1 µM [3]: 92% | remaining binding at 1 µM [4]: 77% | remaining binding at 1 µM [5]: 56% | remaining binding at 1 µM [6]: 83% | remaining binding at 1 µM [7]: 98% | remaining binding at 1 µM [8]: 74% | remaining binding at 1 µM [9]: 77% | remaining binding at 1 µM [10]: 100% | remaining binding at 1 µM [11]: 61% | remaining binding at 1 µM [12]: 64% | remaining binding at 1 µM [13]: 77% | remaining binding at 1 µM [14]: 83% | remaining binding at 1 µM [15]: 100% | remaining binding at 1 µM [16]: 72% | remaining binding at 1 µM [17]: 96% | remaining binding at 1 µM [18]: 89% | remaining binding at 1 µM [19]: 98% | remaining binding at 1 µM [20]: 72% | remaining binding at 1 µM [21]: 99% | remaining binding at 1 µM [22]: 96% | remaining binding at 1 µM [23]: 100% | remaining binding at 1 µM [24]: 100%
